Test results taken from US20230192661A1, “1, 4, 5, 6-TETRAHYDROPYRIMIDINE-2-AMINE DERIVATIVE” (UBE Corporation, priority 2020, published 2023).

Legend:
[1] = system: TGF-β activation (phosphorylated SMAD3); assay: TGF-β activation inhibition test (inhibition of SMAD3 phosphorylation in TFK-1 cells); type: cell-based; conditions: 48 h, fibronectin-coated plate, cultured 2 days, read-out: IC50 (rate of inhibition of phosphorylated SMAD3)
Procedure: In Test Example 3, the inhibition of TGF-β activation by a compound was detected with the inhibition of SMAD3 phosphorylation as an index. In Test Example 3, the same reagents as in Test Example 1 were used unless otherwise specified.
Human fibronectin was prepared at 14 μg/mL with PBS and then dispensed at 50 μL/well to a 96-well plate. The plate was left standing at room temperature for 1 hour or longer, followed by the removal of the fibronectin solution. The plate was washed with PBS and used as a coated plate.
A test compound dissolved in DMSO was added to RPMI medium 1640 (manufactured by Thermo Fisher Scientific, Inc., 11875) containing 1% FBS and 1% penicillin/streptomycin/amphotericin B to prepare a medium containing the test compound having a concentration of two times the final concentration. This medium was added at 100 μL/well to the coated plate. TFK-1 cells (Cell Resource Center for Biomedical Research, Institute of Development, Aging and Cancer, Tohoku University) cultured in RPMI medium 1640 containing 10% FBS and 1% penicillin/streptomycin/amphotericin B were suspended in RPMI medium 1640 containing 1% FBS and 1% penicillin/streptomycin/amphotericin B to prepare a cell suspension of 1×10^6 cells/mL. The prepared cell suspension was further added at 100 μL/well and cultured for 2 days in a 5% CO2 incubator (37° C.).
Phosphorylated SMAD3 in the cells thus cultured for 2 days was measured using Phospho-SMAD3 (Ser423/425) cellular kit (manufactured by cisbio, 63ADK025), and a DeltaF value was calculated according to the calculation expression of the kit. Inhibition when 10 μM LY364947 (FUJIFILM Wako Pure Chemical Corp., 123-05981) was added instead of the test compound was defined as 100% inhibition, and inhibition when DMSO was added instead was defined as 0% inhibition. The rate of inhibition of phosphorylated SMAD3 by the test compound was calculated according to the following expression.
Rate of inhibition of phosphorylated SMAD3 (%)=[1−{(DeltaF value in the case of adding the test compound)−(DeltaF value in the case of adding 10 μM LY364947)}/{(DeltaF value in the case of adding DMSO)−(DeltaF value in the case of adding 10 μM LY364947)}]×100
An IC50 value was calculated from the rate of inhibition of phosphorylated SMAD3 by the test compound. A: IC50<10 nM, B: 10 nM≤IC50<50 nM, C: 50 nM≤IC50<100 nM, or D: IC50≥100 nM.

[2] = system: Human hepatic stellate cells; assay: Active human hepatic stellate cell dedifferentiation test (decrease in ACTA2 mRNA expression); type: cell-based; conditions: 3 days differentiation then 2 days with compound, read-out: IC50 (rate of decrease in ACTA2 mRNA expression)
Procedure: Human hepatic stellate cells (manufactured by ScienCell Research Laboratories, Inc., 5300) were suspended in DMEM containing 10% FBS and […] penicillin/streptomycin/amphotericin B to prepare a cell suspension of 0.5×10^5 cells/mL, which was regarded as cells at the start of differentiation. The cells at the start of differentiation were dispensed at 1 mL/well to a 12-well plate and cultured, for differentiation, for 3 days in a 5% CO2 incubator (37° C.).
The culture solution in each well was removed, and DMEM containing 10% FBS and 1% penicillin/streptomycin/amphotericin B supplemented with a test compound dissolved in DMSO (final DMSO concentration: 0.1%) was added at 1 mL/well. The resultant was further cultured for 2 days in a 5% CO2 incubator (37° C.). In Test Example 4, the same reagents as in Test Example 1 were used unless otherwise specified.
RNA in the cultured cells was extracted using NucleoSpin® RNA (manufactured by Takara Bio Inc., U0955C), and cDNA was further synthesized from the extracted RNA using Prime Script™ RT reagent Kit with gDNA Eraser (manufactured by Takara Bio Inc., RR047A). Real time PCR was performed using the synthesized cDNA, various primers and TB Green® Premix Ex Taq™ II (manufactured by Takara Bio Inc., RR820A) and using PCR Thermal Cycler Dice Real Time (manufactured by Takara Bio Inc., System Code TP910, Model Code TP900). The primers used were actin alpha 2, smooth muscle (ACTA2) primer (manufactured by Takara Bio Inc., HA136273) and glyceraldehyde-3-phosphate dehydrogenase (GAPDH) primer (manufactured by Takara Bio Inc., HA067812).
The amplification curve of PCR was analyzed by the comparative Ct method. The expression level of ACTA2 mRNA was corrected with the expression level of GAPDH mRNA. An ACTA2 mRNA expression level when DMSO was added instead of the test compound was defined as 100%, and an ACTA2 mRNA expression level in the cells at the start of differentiation was defined as 0%. The rate of decrease in ACTA2 mRNA expression by the test compound was calculated according to the following expression.
Rate of decrease in ACTA2 mRNA expression (%)=[1−{(ACTA2 mRNA expression level in the case of adding the test compound)−(ACTA2 mRNA expression level in the cells at the start of differentiation)}/{(ACTA2 mRNA expression level in the case of adding DMSO)−(ACTA2 mRNA expression level in the cells at the start of differentiation)}]×100
An IC50 value was calculated from the rate of decrease in ACTA2 mRNA expression by the test compound. A: IC50<10 nM, B: 10 nM≤IC50<50 nM, C: 50 nM≤IC50<100 nM, or D: IC50≥100 nM.

| Structure (SMILES) | IC50 [1] | IC50 [2] |
| --- | --- | --- |
| O=C(O)C[C@H](NC(=O)CNC(=O)c1cc(NC2=NCC(F)CN2)c2cn[nH]c2c1)c1cc(OC(F)F)cc(C(F)(F)F)c1 (stereo partly drawn) [Example 24-(b), (3S)-3-(3-(difluoromethoxy)-5-(trifluoromethyl)phenyl)-3-(2-(4-((5-fluoro-1,4,5,6-tetrahydropyrimidin-2-yl)amino)-1H-indazole-6-carboxamido)acetamido)propanoic acid] | < 10 nM | < 10 nM |
| O=C(O)C[C@H](NC(=O)CNC(=O)c1cc(NC2=NCC(F)CN2)c2cn[nH]c2c1)c1cc(Cl)cc(OC(F)F)c1 (stereo partly drawn) [Example 25-(b), (3S)-3-(3-chloro-5-(difluoromethoxy)phenyl)-3-(2-(4-((5-fluoro-1,4,5,6-tetrahydropyrimidin-2-yl)amino)-1H-indazole-6-carboxamido)acetamido)propanoic acid] | < 10 nM | < 10 nM |
| O=C(O)C[C@H](NC(=O)CNC(=O)c1cc(NC2=NCC(F)CN2)c2cn[nH]c2c1)c1cc(Br)cc(OC(F)F)c1 (stereo partly drawn) [Example 26-(b), (3S)-3-(3-bromo-5-(difluoromethoxy)phenyl)-3-(2-(4-((5-fluoro-1,4,5,6-tetrahydropyrimidin-2-yl)amino)-1H-indazole-6-carboxamido)acetamido)propanoic acid] | < 10 nM | < 10 nM |
| O=C(O)C[C@H](NC(=O)CNC(=O)c1cc(NC2=NCC(F)CN2)c2cn[nH]c2c1)c1cc(OC(F)F)ccc1F (stereo partly drawn) [Example 28-(b), (3S)-3-(5-(difluoromethoxy)-2-fluorophenyl)-3-(2-(4-((5-fluoro-1,4,5,6-tetrahydropyrimidin-2-yl)amino)-1H-indazole-6-carboxamido)acetamido)propanoic acid] | 10 to 50 nM | 10 to 50 nM |
| O=C(O)C[C@H](NC(=O)CNC(=O)c1cc(NC2=NCC(F)CN2)c2cn[nH]c2c1)c1cc(OC(F)F)cc(OC(F)F)c1 (stereo partly drawn) [Example 30-(b), (3S)-3-(3,5-bis(difluoromethoxy)phenyl)-3-(2-(4-((5-fluoro-1,4,5,6-tetrahydropyrimidin-2-yl)amino)-1H-indazole-6-carboxamido)acetamido)propanoic acid] | < 10 nM | < 10 nM |
| O=C(O)C[C@H](NC(=O)CNC(=O)c1cc(NC2=NCC(F)CN2)c2cn[nH]c2c1)c1cc(Cl)cc(OC(F)(F)F)c1 (stereo partly drawn) [Example 31-(b), (3S)-3-(3-chloro-5-(trifluoromethoxy)phenyl)-3-(2-(4-((5-fluoro-1,4,5,6-tetrahydropyrimidin-2-yl)amino)-1H-indazole-6-carboxamido)acetamido)propanoic acid] | < 10 nM | < 10 nM |
| O=C(O)C[C@H](NC(=O)CNC(=O)c1cc(NC2=NCC(F)CN2)c2cn[nH]c2c1)c1cc(Br)cc(OC(F)(F)F)c1 (stereo partly drawn) [Example 32-(b), (3S)-3-(3-bromo-5-(trifluoromethoxy)phenyl)-3-(2-(4-((5-fluoro-1,4,5,6-tetrahydropyrimidin-2-yl)amino)-1H-indazole-6-carboxamido)acetamido)propanoic acid] | < 10 nM | 10 to 50 nM |
| O=C(O)C[C@H](NC(=O)CNC(=O)c1cc(NC2=NCC(F)CN2)c2cn[nH]c2c1)c1cc(OC(F)(F)F)ccc1F (stereo partly drawn) [Example 33-(b), (3S)-3-(2-(4-((5-fluoro-1,4,5,6-tetrahydropyrimidin-2-yl)amino)-1H-indazole-6-carboxamido)acetamido)-3-(2-fluoro-5-(trifluoromethoxy)phenyl)propanoic acid] | < 10 nM | 10 to 50 nM |
| O=C(O)C[C@H](NC(=O)CNC(=O)c1cc(NC2=NCC(F)CN2)c2cn[nH]c2c1)c1ccc(F)c(OC(F)(F)F)c1 (stereo partly drawn) [Example 34-(b), (3S)-3-(2-(4-((5-fluoro-1,4,5,6-tetrahydropyrimidin-2-yl)amino)-1H-indazole-6-carboxamido)acetamido)-3-(4-fluoro-3-(trifluoromethoxy)phenyl)propanoic acid] | < 10 nM | 10 to 50 nM |
